Results published in patent publication EP0110748A1, “Derivatives of phenyl-(3-aminopropyl) ketone, their therapeutical use and process for their preparation” (LABORATOIRE L. LAFON Société anonyme dite:, priority 1982, dated 1984).
Read-outs that look alike come from different tables or passages of the source.

How the values were obtained:
[1] = Acute toxicity, DL-50 I.V. in male mice; conditions: mouse, in vivo, iv, lots de 10 souris mâles
Excerpt: (§1) Le tableau I concerne la toxicité chez la souris mâle, d'une part, et la dose minimale induisant chez le chien anesthésié une action vasodilatatrice fémorale nette, d'autre part. La DL-50 I.V. a été déterminée sur des lots de 10 souris mâles; la dose minimale vasodilatatrice a été déterminée sur un lot de 5 chiens servant de témoins par rapport à eux-mêmes et recevant chaque dose de produit à tester toutes les 2,5 heures.

[2] = system: chien anesthésié; assay: Minimal dose inducing a clear femoral vasodilator action in the anaesthetised dog; format: in vivo; conditions: Canis lupus familiaris, lot de 5 chiens
Excerpt: as §1

[3] = system: chien anesthésié; assay: Cardiovascular properties in the anaesthetised dog, I.V. (arterial pressures, heart rate, femoral arterial flow); format: in vivo
Excerpt: Le tableau II concerne les variations des pressions […]. systolique, diastolique, […]équence cardiaque et du débit artériel fémoral.

[4] = system: chiens anesthésiés; assay: Femoral vasodilator action by intravenous infusion in anaesthetised dogs; format: in vivo, chien
Description: Deux chiens (poids moyen 12,4 kg) anesthésiés au pento- barbital reçoivent le CRL 41 080 par voie intraveineuse, en perfusion de 6 min, aux doses successives de 2 fois 1 mg/kg, puis 2 et 4 mg/kg toutes les 60 min. Pour comparaison, ces animaux reçoivent en fin d'essai une perfusion de 6 mg/kg I.V. d'un produit de référence connu, le LL 1656 précité.

[5] = system: chiens anesthésiés; assay: Vasodilator action by intraduodenal route in anaesthetised dogs; format: in vivo, chien; conditions: voie intraduodénale
Excerpt: On mesure la pression artérielle, la fréquence cardiaque, le débit artériel fémoral, le débit artériel vertébral, les températures rectale et cutanée.

[6] = system: chiens; assay: Duration of the vasodilator action, repeated intraduodenal administration in dogs; format: in vivo, chien
Description: Trois chiens (poids moyen 11,1 kg) reçoivent le CRL 41 080 par voie intraduodénale à la dose de 5 mg/kg à deux reprises (délai entre les deux administrations : 90 min) puis 6 mg/kg I.D. de LL 1656 et, 2 heures plus tard, une nouvelle administration de 5 mg/kg I.D. de CRL 41 080.

[7] = system: homme; assay: Clinical trials in man; format: in vivo; conditions: voie orale (trois gélules par jour de 100 mg) et voie injectable (I.V. ou I.M., une ampoule par jour de 40 mg)
[8] = Antispasmodic properties (no method described)
[9] = Solubility in water (observation on the isolated product); format: physicochemical; conditions: poudre blanche
Description: On fait passer entre -5°C et 0°C pendant 2,5 h un courant d'acide chlorhydrique sec au sein d'une solution de 16,8 g (0,10 mole) de 1,3,5-triméthoxybenzène et de 16,6 g (0,10 mole) de 4-hexaméthylèneimino-butyronitrile en solution dans 115 ml de chlorobenzène anhydre. On abandonne la suspension au froid entre 0°C et +4°C une nuit et on extrait le milieu réactionnel par de l'eau. On porte la phase aqueuse au reflux pendant 1 h, on alcalinise par de la soude concentrée et on extrait le précipité par de l'éther diéthylique pour donner 29,8 g d'une huile jaune pale. Cette huile est traitée dans l'éther diéthylique par de l'éthanol chlorhydrique. […] Finst (^Kofler) = 150°C.

[10] = intraduodenal, par voie I.D., '-(d)' = pas d'action vasodilatatrice par voie I.D., read-out: dose minimale induisant chez le chien anesthésié une action vasodilatatrice fémorale par voie I.D.
[11] = iv, par voie I.V., read-out: dose minimale induisant chez le chien anesthésié une action vasodilatatrice fémorale par voie I.V.
[12] = I.V., perfusion de 6 min, 2 fois 1 mg/kg puis 2 et 4 mg/kg, deux chiens
[13] = 5 mg/kg I.D., first administration
[14] = 5 mg/kg I.D., second administration
[15] = dose supplémentaire de 5 mg/kg I.D., 2 heures after LL 1656
[16] = 6 mg/kg I.D., after two administrations of CRL 41 080

COc1cc(OC)c(C(=O)CCCN2CCCCCC2)c(OC)c1 [CRL 41080, chlorhydratede (2,4,6-triméthoxyphényl)-(3-hexaméthylèneiminopropyl)-cétone]
LD50 [1]: 96 ± 3 mg/kg | minimal effective dose [2, 10]: 5 mg/kg | minimal effective dose [2, 11]: 1 mg/kg | Variation 0,25 h après administration P.A. systolique ([3]; 1 mg/kg I.V., 0,25 h après administration): 0 | Variation 0,25 h après administration P.A. moyenne ([3]; 2 mg/kg I.V., 0,25 h après administration): 0 | débit fémoral [4, 12]: le débit fémoral augmente pendant la durée de la perfusion dès 1 mg/kg | pression artérielle, fréquence cardiaque [4, 12]: ne modifie pas la pression artérielle ni la fréquence cardiaque | débit vertébral ([5]; doses successives 0,5 - 10 mg/kg): il semble que le débit vertébral soit diminué, mais cet effet n'est pas statistiquement significatif | débit fémoral ([5]; doses successives 0,5 - 10 mg/kg, quatre chiens): augmente nettement le débit fémoral à partir de la dose de 5 mg/kg | durée de l'effet sur le débit fémoral ([5]; à partir de 5 mg/kg): plus d'une heure | autres paramètres mesurés [6, 13]: ne sont pas modifiés | time at which the effect on débit fémoral has disappeared [6, 13]: 120 min | time at which the effect on débit fémoral has lost half of its intensity [6, 13]: 60 min | time of maximal effect on débit fémoral [6, 13]: 30 min | débit fémoral ([6]; 5 mg/kg I.D., first administration, trois chiens): augmente le débit fémoral | débit vertébral ([6]; 5 mg/kg I.D., repeated): ne diminue pas le débit vertébral | persistence of the effect on débit fémoral [6, 14]: encore présent à 120 min | time of maximal effect on débit fémoral [6, 14]: 30 min | débit fémoral ([6]; 5 mg/kg I.D., second administration (90 min after the first)): effet plus intense sur le débit fémoral | débit fémoral [6, 15]: n'augmente pas davantage le débit fémoral | pression artérielle, fréquence cardiaque [6, 15]: entraîne une hypotension et une bradycardie | résultats des essais cliniques chez l'homme [7]: bons résultats | propriétés antispasmodiques [8]: ne présente pas les propriétés antispasmodiques | solubilité dans l'eau [9]: soluble dans l'eau

COc1cc(OC)c(C(=O)CCCN2CCCCC2)c(OC)c1 [LL 1647, chlorhydratede (2,4,6-triméthoxyphényl)-(3-pipéridi-nopropyl)-cétone]
LD50 [1]: 68 ± 4 mg/kg | minimal effective dose [2, 11]: 5 mg/kg

COc1cc(OC)c(C(=O)CCCN2CCCC2)c(OC)c1 [LL 1656, chlorhydratede (2,4,6-triméthoxyphényl)-(3-pyrrolidinopropyl)-cétone, reference compound]
LD50 [1]: 60 ± 2.2 mg/kg | minimal effective dose [2, 10]: 6 mg/kg | minimal effective dose [2, 11]: 5 mg/kg | Variation 0,25 h après administration Fréquence cardiaque ([3]; 6 mg/kg I.V., 0,25 h après administration): 0 | débit fémoral ([4]; perfusion de 6 mg/kg I.V. en fin d'essai, comparison with 1 mg/kg of CRL 41 080): augmente moins le débit fémoral que 1 mg/kg de CRL 41 080 | débit fémoral [6, 16]: augmentation de débit fémoral d'intensité moyenne | time of maximal effect on débit fémoral [6, 16]: 120 min
